Test systems include COLO 205 colon; HOP-92 NSCLC; IGROV1 ovarian; LOX IMVI melanoma; M14 melanoma; OVCAR-5 ovarian; SN12C renal; SNB-19 CNS; NCI-H522 lung; SR leukemia.
What all share (experiment): growth of human tumour cells (NCI), 48 h

“And” between values parts separate entries of the source, which are not always exact repeats. Equal entries are not always repeated.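 Step 1: Grow cells in 96-well plates. Step 2: Expose to compound for 48 hours at 5 concentrations. Step 3: Interpolate endpoints linearly; if unreached, use highest concentration. At the GI50, growth is halved. The concentration for full growth arrest is given as TGI.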 Where a SMILES comes first, the peptide text is derived from it. [ ]: non-standard residue; d: D form. The star is where a group is joined. Bn2Val = CC(C)[C@@H](C(=O)*)N(Cc1ccccc1)Cc1ccccc1; NH(3,4-diMeO-benzyl) = COc1ccc(CN*)cc1OC; NMeV = CN[C@H](C(=O)O)C(C)C; dNMeA = CN[C@H](C)C(=O)O

As to `COc1cc([C@@H]2c3cc4c(cc3[C@@H](NC(=O)c3cccc([N+](=O)[O-])c3)C3COC(=O)[C@@H]32)OCO4)cc(OC)c1O` (some centres not stated), the TGI with COLO 205 colon is above 100 µM; in the assay on HOP-92 NSCLC, 22.8 µM; with IGROV1 ovarian, above 37.4 µM; in the assay on LOX IMVI melanoma it was 9.41 µM; in the assay on M14 melanoma it was above 19.8 µM; in the assay with OVCAR-5 ovarian, 8.54 µM. The TGI with SN12C renal amounted to 1.49 µM; with SNB-19 CNS, 14.1 µM.

For the molecule `CCCNC(=O)OCc1c(COC(=O)NCCC)c(-c2ccc(Cl)c(Cl)c2)n2c1CCC2`, the TGI is 13.2 µM with COLO 205 colon; 9.98 µM in the assay with HOP-92 NSCLC; 5.54 µM with IGROV1 ovarian; 15.8 µM in the assay on LOX IMVI melanoma; 24.4 µM in the assay on M14 melanoma; 4.32 µM in the assay with NCI-H522 lung. Also, the TGI in the assay on OVCAR-5 ovarian amounted to 20.4 µM; with SN12C renal it was 19.4 µM; in the assay with SNB-19 CNS it was 39.1 µM.

As to `O=C1NC(=O)C2C(=O)NC(=O)C1C2(c1ccccc1)c1ccc(Cl)cc1` (configuration not stated), the TGI in the assay on COLO 205 colon, in the assay on HOP-92 NSCLC, in the assay with IGROV1 ovarian, in the assay with LOX IMVI melanoma, in the assay on M14 melanoma and with NCI-H522 lung was above 100 µM in each case. The TGI in the assay on OVCAR-5 ovarian, with SN12C renal and with SNB-19 CNS was above 100 µM in each case.

As to `O=C(O)c1cc(S(=O)(=O)N=NC=C2c3ccccc3N(O)c3ccccc32)ccc1O`, the TGI stood at 37.6 µM in the assay with COLO 205 colon; 30.1 µM with HOP-92 NSCLC; 83.1 µM in the assay with IGROV1 ovarian; 26 µM with LOX IMVI melanoma; 79.2 µM in the assay on M14 melanoma; 23.8 µM in the assay with NCI-H522 lung. In addition, the TGI in the assay with OVCAR-5 ovarian, with SN12C renal and in the assay with SNB-19 CNS was above 100 µM throughout.

`O=c1[nH]c(=O)n(C2CC(O)C(CO)O2)cc1C#Cc1c(F)c(F)c(F)c(F)c1F` (configuration not stated): the TGI in the assay with COLO 205 colon, in the assay with LOX IMVI melanoma, in the assay on M14 melanoma, in the assay with OVCAR-5 ovarian, in the assay on SN12C renal and with SNB-19 CNS was above 100 µM throughout. This molecule had a TGI in the assay with SR leukemia above 100 µM.

For `O=S(=O)(O)C(O)/C=C/c1ccccc1` (configuration not stated), the TGI in the assay with COLO 205 colon, with IGROV1 ovarian, with LOX IMVI melanoma, in the assay on M14 melanoma, in the assay with NCI-H522 lung and in the assay with OVCAR-5 ovarian was above 100 µM throughout. The TGI in the assay on SN12C renal, in the assay with SNB-19 CNS and with SR leukemia was above 100 µM throughout.

Take `COc1ccc(CNC(=O)[C@@H](C)N(C)C(=O)[C@@H]2CCCN2C(=O)[C@H](C(C)C)N(C)C(=O)[C@@H](NC(=O)[C@H](C(C)C)N(Cc2ccccc2)Cc2ccccc2)C(C)C)cc1OC` (Bn2Val-V[NMeV]P[dNMeA]-{NH(3,4-diMeO-benzyl)}): the GI50 with COLO 205 colon was 5.86 µM; with HOP-92 NSCLC it was 10.2 µM; with IGROV1 ovarian, 11.1 µM; in the assay with LOX IMVI melanoma, 6.35 µM; with M14 melanoma, 63.2 µM; in the assay with NCI-H522 lung, 9.05 µM. The GI50 was 2.79 µM with OVCAR-5 ovarian, 10 µM in the assay on SN12C renal and above 100 µM in the assay on SNB-19 CNS. Moreover, the TGI was 19.8 µM and 35.9 µM in the assay on COLO 205 colon; 16.9 µM and 23.4 µM with HOP-92 NSCLC; 13.6 µM and 28.3 µM in the assay with IGROV1 ovarian; 15.4 µM and 26.2 µM with LOX IMVI melanoma; 16.9 µM and > 100 µM in the assay with M14 melanoma; 10.7 µM and 45.1 µM in the assay on NCI-H522 lung. For the same molecule, the TGI in the assay on OVCAR-5 ovarian is 16.6 µM and 9.77 µM; with SN12C renal it was 17.2 µM and 22.2 µM; in the assay with SNB-19 CNS, 23.9 µM and > 100 µM.

As for `O=C(Nc1ccccc1[N+](=O)[O-])c1ccccc1`, the TGI in the assay with COLO 205 colon, in the assay on HOP-92 NSCLC, in the assay on IGROV1 ovarian, with LOX IMVI melanoma, in the assay with M14 melanoma and in the assay on NCI-H522 lung was above 100 µM each time. Besides, the TGI in the assay on OVCAR-5 ovarian, with SN12C renal and with SNB-19 CNS was above 100 µM throughout.

As for `O=C(/C=C(\[O-])c1ccccc1)CCCCCCC(=O)/C=C(\[O-])c1ccccc1.O=C(/C=C(\[O-])c1ccccc1)CCCCCCC(=O)/C=C(\[O-])c1ccccc1.O=C(/C=C(\[O-])c1ccccc1)CCCCCCC(=O)/C=C(\[O-])c1ccccc1.[La+3].[La+3]`, the GI50 in the assay on COLO 205 colon, in the assay on HOP-92 NSCLC, with IGROV1 ovarian, with LOX IMVI melanoma, in the assay on M14 melanoma and with NCI-H522 lung was above 50 µM in each case. In addition, the GI50 with OVCAR-5 ovarian, in the assay on SN12C renal and with SNB-19 CNS was above 50 µM throughout. Further, the TGI with COLO 205 colon, with HOP-92 NSCLC, in the assay with IGROV1 ovarian, in the assay with LOX IMVI melanoma, in the assay on M14 melanoma and in the assay with NCI-H522 lung was above 50 µM each time. The TGI with OVCAR-5 ovarian, in the assay on SN12C renal and in the assay with SNB-19 CNS was above 50 µM throughout.

With `O=C(N/N=C/c1cccc(O)c1O)N/N=C/c1cccc(O)c1O`, the TGI in the assay on COLO 205 colon is above 100 µM; in the assay on HOP-92 NSCLC, 77.9 µM; in the assay with IGROV1 ovarian it was above 100 µM; in the assay on LOX IMVI melanoma it was above 100 µM; in the assay with M14 melanoma, 34 µM; in the assay on OVCAR-5 ovarian, 59 µM. Further, the TGI in the assay with SN12C renal and in the assay on SNB-19 CNS was above 100 µM throughout.

With `C[Si](C)(C)c1ccc(CC2(Cc3ccc([Si](C)(C)C)cc3)CCNC2)cc1`, the TGI with COLO 205 colon is 3.19 µM; in the assay on HOP-92 NSCLC it was 3.18 µM; in the assay with IGROV1 ovarian, 7.12 µM; with LOX IMVI melanoma, 3.19 µM; with M14 melanoma, 3.31 µM; in the assay on NCI-H522 lung, 3.28 µM. Also, the TGI with OVCAR-5 ovarian was 15.4 µM; in the assay on SN12C renal, 3.11 µM; in the assay on SNB-19 CNS, 13.7 µM.

Regarding `CCCCCCCCCCCCCCC1OC(=O)c2ccccc21` (configuration not stated), the TGI is above 100 µM in the assay on IGROV1 ovarian; above 100 µM with LOX IMVI melanoma; above 100 µM in the assay on M14 melanoma; above 100 µM in the assay on OVCAR-5 ovarian; 75.9 µM in the assay with SN12C renal; above 100 µM in the assay with SNB-19 CNS. Besides, in the assay with SR leukemia, the TGI was above 100 µM.

`O=C1c2ccccc2-c2c1c1cc3c(cc1c(=O)n2CCCCl)OCO3`: the GI50 in the assay on HOP-92 NSCLC was 41.1 µM; with LOX IMVI melanoma, 39.7 µM; in the assay on M14 melanoma it was 65.3 µM; in the assay on NCI-H522 lung, 16.8 µM; in the assay with SN12C renal, 21.8 µM; in the assay on SNB-19 CNS, above 100 µM. The TGI in the assay with HOP-92 NSCLC was above 100 µM; with LOX IMVI melanoma, above 100 µM; with M14 melanoma it was above 100 µM; with NCI-H522 lung it was above 100 µM; with SN12C renal, 77.6 µM; with SNB-19 CNS, above 100 µM.
